Assay results as given in patent US11470844B2, “Vespidae wasp repellent” (KINP CO., LTD, priority 2015, dated 2022).

Columns and labels:
[1] = tested on: Vespa mandarinia worker; assay: Spray on Vespa mandarinia worker collecting sawthorn oak sap; format: in vivo, Vespa mandarinia japonica Radoszkowski; settings: 10 workers; for behavior of workers after spraying: immediately started flapping, same time or a few seconds later; for Number of worker Effective / Number of worker No response: sprayed one time, observed up to 1 minute
Procedure: The experiment was conducted on a Vespa mandarinia japonica Radoszkowski worker which flew to a sawthorn oak tree bleeding sap and which collected the sap in Kagawa Prefecture Kinbuchi Forest Park in Takamatsu City Kagawa Prefecture from June to October, 2014 and from June to July, 2015.
Specifically, 100 mL of distilled water was enclosed in a plastic sprayer having a volume of 200 mL to be used as a control sprayer, and 100 mL of benzyl alcohol was enclosed in the same material and the same volume sprayer to be used as a test liquid sprayer. First, distilled water was sprayed one time to one Vespa mandarinia worker which was collecting sap at a sap bleeding part of a trunk of a sawthorn oak tree by using a control sprayer. […] Then, benzyl alcohol was sprayed one time by using a test liquid sprayer. Next, the workers were observed up to 1 minute. With respect to 2-phenylethanol, 3-phenylpropanol, 1-phenyl-2-prpanol and benzyl acetate, the spray test to a Vespa mandarinia worker collecting a sawthorn oak sap was conducted in the same condition.

[2] = tested on: Apis mellifera worker; settings: in vivo
Procedure: The experiment involving a Apis mellifera worker which was sucking nectar from a flower of Abelia planted at a bank of Noda pond located at Fuseishi-cho, Takamatsu City, Kagawa Prefecture was conducted on Jul. 22 to 24, 2015.
With respect to the experimental condition, first, distilled water was sprayed once on the worker which was sucking nectar or moving from a flower to a flower by using a sprayer, and then the inventors observed the behavior for 30 seconds. Next, benzyl alcohol, 2-phenylethanol or benzyl acetate was sprayed once on the same worker by using the sprayer having the same mass and the same volume, and then the inventors observed the behavior up to 30 seconds. The test liquid was judged to be “effective” in the case where the Apis mellifera worker on which the test liquid was sprayed did different action than normal activity to visit a flower during the observation time.

SMILES | behavior of workers after spraying [1] | Number of worker Effective [1] | Number of worker No response [1] | Number of worker Effective [2] | Number of worker No response [2]
OCCCc1ccccc1 [3-Phenylpropanol, 3-phenylpropanol] | flew away from the sap bleeding part | 10/10 | 0/10 | – | –
CC(O)Cc1ccccc1 (centres unmarked) [1-Phenyl-2-propanol, 1-phenyl-2-propanol] | flew away from the sap bleeding part | 10/10 | 0/10 | – | –
CC(=O)OCc1ccccc1 [Benzyl acetate, benzyl acetate] | flew away from the sap bleeding part | 10/10 | 0/10 | 0/10 | 10/10
